Assay results: ChEMBL document CHEMBL1201862, “PubChem BioAssay data set” (2004)
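Where inhibition never reached the appropriate level, the endpoint shown equals the highest concentration tested. Otherwise, values were interpolated linearly from a five-concentration, 48-hour dose response in 96-well plates. Here, GI50 denotes the concentration required for 50% inhibition of growth.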 The source made the active and inactive calls. No stated cut-off is given here; in the data, active = GI50 up to about 1.1 µM and inactive = higher.

Experiments:
Test in all cases: DTP human tumour cell line panel, 48 h
DMS-273 = test system: DMS-273
RXF 631 = test system: RXF 631
LXFL 529 = test system: LXFL 529
T47D = test system: T47D
PC-3 = test system: PC-3
MDA-MB-231 = test system: MDA-MB-231
Hs-578T = test system: Hs-578T
MDA-N = test system: MDA-N

Compound	GI50 (DMS-273)	GI50 (RXF 631)	GI50 (LXFL 529)	GI50 (T47D)	GI50 (PC-3)	GI50 (MDA-MB-231)	GI50 (Hs-578T)	GI50 (MDA-N)
Cc1ccccc1OCC(COC(=O)Nc1ccccc1)OC(=O)Nc1ccccc1 (stereo not given)	32.1 µM (inactive)	9.93 µM (inactive)	45.9 µM (inactive)					
Cc1cccc(N2C(=O)C3c4[nH]c5ccc(C)cc5c4C4CCC(C(C)(C)C)CC4C3C2=O)c1 (stereo not given)				14.3 µM (inactive)	13.7 µM (inactive)	18.8 µM (inactive)		
CC(/C=N/N=C(N)N)=N\N=C(N)N	31.6 µM (inactive)		61.9 µM (inactive)	1.91 µM (inactive)	232 µM (inactive)	22.6 µM (inactive)	33.2 µM (inactive)	15.2 µM (inactive)
Cc1c2c(cc3c1[nH]c1ccccc13)C(c1ccc(F)cc1)=NCC2	0.63 µM (active)							
CCOC(C)OC1CC(n2cc(C)c(=O)[nH]c2=O)OC1CO (stereo not given)	> 100 µM (inactive)		> 100 µM (inactive)					
CC1=C[C@]2(CC(C)C3C(CC4(C)C5CCC6C(C)(C)C(=O)CC[C@@]67C[C@@]57CC[C@]34C)O2)OC1=O (stereo not given in full)	3.95 µM (inactive)	3.54 µM (inactive)	7.52 µM (inactive)					
O=S(=O)(O)c1cc2ccc1/C=C\c1ccc(cc1S(=O)(=O)O)/N=N\c1ccc(c(S(=O)(=O)O)c1)/C=C\c1ccc(cc1S(=O)(=O)O)/N=N\2	> 100 µM (inactive)							
CCOC(=O)C(O)(NC(=O)c1ccc(F)cc1)C(F)(F)F (stereo not given)				> 100 µM (inactive)	> 100 µM (inactive)	59.8 µM (inactive)	> 100 µM (inactive)	> 100 µM (inactive)
CN(C)CCNC(=O)c1cccc2c1C(=O)c1ccccc1C2=O	23.7 µM (inactive)							
Nc1ncc2c(n1)-c1ccccc1OC2	> 80.5 µM (inactive)							
COC1C(O)CC(OC2CC(Oc3cc4cc5c(c(O)c4c(O)c3C)C(=O)[C@@H](OC3CC(OC4CC(OC6CC(C)(O)C(OC(C)=O)C(C)O6)C(O)C(C)O4)C(O)C(C)O3)[C@H]([C@H](OC)C(=O)[C@@H](O)[C@@H](C)O)C5)OC(C)C2OC(C)=O)OC1C (stereo not given in full) [CHROMOMYCIN]				< 0.01 µM (active)	3.57e-05 µM (active)	3e-05 µM (active)	2.13e-05 µM (active)	3.15e-05 µM (active)
COc1cc([C@@H]2c3cc4c(c(O[C@@H]5O[C@H]6CO[C@@H](C)O[C@H]6[C@H](O)[C@@H]5O)c3C[C@H]3COC(=O)[C@@H]32)OCO4)cc(OC)c1O	4.63 µM (inactive)							
CCCC[C@H]1[C@@H](OCOc2ccccc2)COC(=O)N1[C@H](C)c1ccccc1				11.3 µM (inactive)	6.1 µM (inactive)	13.3 µM (inactive)	20.5 µM (inactive)	11.9 µM (inactive)
COc1cc(C(C)O)c(S(=O)(=O)CC(C)O)nn1 (stereo not given)							> 100 µM (inactive)	> 100 µM (inactive)
